Source: patent US9765034B2, “5-halogenopyrazole biphenylcarboxamides” (BAYER CROPSCIENCE AG, priority 2012, dated 2017)

Legend:
Pyricularia oryzae = format: in vivo; details: rice plants, preventive spray, 500 ppm, grading 6 days after contamination
Alternaria brassicae = test: In vivo preventive test on Alternaria brassicae (leaf spot on radish); details: radish plants, preventive spray, 500 ppm, grading 6 days after contamination
Description: Example: In Vivo Preventive Test on Alternaria brassicae (Leaf Spot on Radish) […] Radish plants (“Pernod Clair” variety), sown in starter cups on a 50/50 peat soil-pozzolana substrate and grown at 17° C., are treated at the cotyledon stage by spraying with the active ingredient prepared as described above. Plants, used as controls, are treated with the mixture of acetone/tween/DMSO/water not containing the active material. After 24 hours, the plants are contaminated by spraying the cotyledons with an aqueous suspension of Alternaria brassicae spores (50 000 spores per ml). The spores are collected from a 15-day-old culture. […] Grading (% of efficacy) is carried out 6 days after the contamination, in comparison with the control plants. Under these conditions, good (at least 70%) or total protection is observed at a dose of 500 ppm with the following compounds: […]

Puccinia recondita = test: In vivo preventive test on Puccinia recondita (brown rust on wheat); details: wheat plants, preventive spray, 500 ppm, grading 12 days after contamination
Description: Example: In Vivo Preventive Test on Puccinia recondita (Brown Rust on Wheat) […] Wheat plants (“Scipion” variety), sown in starter cups on a 50/50 peat soil-pozzolana substrate and grown at 22° C., are treated at the 1-leaf stage (10 cm height) by spraying with the active ingredient prepared as described above. Plants, used as controls, are treated with the mixture of acetone/tween/DMSO/water not containing the active material. After 24 hours, the plants are contaminated by spraying the leaves with an aqueous suspension of Puccinia […] spores (100 000 spores per ml). […] Grading (% of efficacy) is carried out 12 days after the contamination, in comparison with the control plants. Under these conditions, good (at least 70%) or total protection is observed at a dose of 500 ppm with the following compounds: […]

Sphaerotheca fuliginea = test: In vivo preventive test on Sphaerotheca fuliginea (powdery mildew on cucurbits); details: gherkin plants, preventive spray, 500 ppm, grading 12 days after contamination
Description: Example: In Vivo Preventive Test on Sphaerotheca fuliginea (Powdery Mildew on Cucurbits) […] Gherkin plants (“Vert petit de Paris” variety), sown in starter cups on a 50/50 peat soil-pozzolana substrate and grown at 24° C., are treated at the Z11 cotyledon stage by spraying with the active ingredient prepared as described above. Plants, used as controls, are treated with the mixture of acetone/tween/DMSO/water not containing the active material. After 24 hours, the plants are contaminated by spraying the cotyledons with an aqueous suspension of Sphaerotheca fuliginea spores (100 000 spores per ml). The spores are collected from infected plants. […] Grading (% of efficacy) is carried out 12 days after the contamination, in comparison with the control plants. Under these conditions, good (at least 70%) or total protection is observed at a dose of 500 ppm with the following compounds: […]

Uromyces appendiculatus = test: In vivo preventive test on Uromyces appendiculatus (bean rust); details: bean plants, preventive spray, 500 ppm, grading 11 days after contamination
Description: Example: In Vivo Preventive Test on Uromyces appendiculatus (Bean Rust) […] Bean plants (“Saxa” variety), sown in starter cups on a 50/50 peat soil-pozzolana substrate and grown at 24° C., are treated at the 2-leaf stage (9 cm height) by spraying with the active ingredient prepared as described above. Plants, used as controls, are treated with the mixture of acetone/tween/DMSO/water not containing the active material. After 24 hours, the plants are contaminated by spraying the leaves with an aqueous suspension of Uromyces appendiculatus spores (150 000 spores per ml). […] Grading (% of efficacy) is carried out 11 days after the contamination, in comparison with the control plants. Under these conditions, good (at least 70%) or total protection is observed at a dose of 500 ppm with the following compounds: […]

Pyrenophora teres = test: In vivo preventive test on Pyrenophora teres (net blotch on barley); details: barley plants, preventive spray, 500 ppm, grading 14 days after contamination
Description: Example: In Vivo Preventive Test on Pyrenophora teres (Net Blotch on Barley) […] Barley plants (“Plaisant” variety), sown in starter cups on a 50/50 peat soil-pozzolana substrate and grown at 22° C., are treated at the 1-leaf stage (10 cm height) by spraying with the active ingredient prepared as described above. Plants, used as controls, are treated with the mixture of acetone/tween/DMSO/water not containing the active material. After 24 hours, the plants are contaminated by spraying the leaves with an aqueous suspension of Pyrenophora teres spores (12 000 spores per ml). The spores are collected from a 12-day-old culture. […] Grading (% of efficacy) is carried out 14 days after the contamination, in comparison with the control plants. Under these conditions, good (at least 70%) or total protection is observed at a dose of 500 ppm with the following compounds: […]

Botrytis cinerea = test: In vivo preventive test on Botrytis cinerea (grey mould); details: gherkin plants, preventive spray, 500 ppm, grading 4 to 5 days after contamination
Description: Example: In Vivo Preventive Test on Botrytis cinerea (Grey Mould) […] Gherkin plants (“Vert petit de Paris” variety), sown in starter cups on a 50/50 peat soil-pozzolana substrate and grown at 24° C., are treated at the Z11 cotyledon stage by spraying with the active ingredient prepared as described above. Plants, used as controls, are treated with the mixture of acetone/tween/DMSO/water not containing the active material. After 24 hours, the plants are contaminated by spraying the cotyledons with an aqueous suspension of cryopreserved Botrytis cinerea spores (50 000 spores per ml). The spores are suspended in a nutrient solution composed of 10 g/L of PDB, 50 g/L of D-Fructose, 2 g/L of NH4NO3 and 1 g/L of KH2PO4. […] Grading (% of efficacy) is carried out 4 to 5 days after the contamination, in comparison with the control plants. Under these conditions, good (at least 70%) or total protection is observed at a dose of 500 ppm with the following compounds: […]

[1] = logP by HPLC on reversed phase columns (EEC directive 79/831 Annex V.A8); details: method [a]: LC-MS at pH 2.7, 0.1% formic acid in water / acetonitrile gradient 10% to 95%
Septoria tritici = test: In vivo preventive test on Septoria tritici (leaf spot on wheat); details: wheat plants, preventive spray, 500 ppm, grading 24 days after contamination
Description: Example: In Vivo Preventive Test on Septoria tritici (Leaf Spot on Wheat) […] Wheat plants (“Scipion” variety), sown in starter cups on a 50/50 peat soil-pozzolana substrate and grown at 22° C., are treated at the 1-leaf stage (10 cm height) by spraying with the active ingredient prepared as described above. Plants, used as controls, are treated with the mixture of acetone/tween/DMSO/water not containing the active material. After 24 hours, the plants are contaminated by spraying the leaves with an aqueous suspension of cryopreserved Septoria tritici spores (500 000 spores per ml). […] Grading (% of efficacy) is carried out 24 days after the contamination, in comparison with the control plants. Under these conditions, good (at least 70%) or total protection is observed at a dose of 500 ppm with the following compounds: […]

Phakopsora pachyrhizi = test: In vivo Phakopsora test (soybeans)/preventive; details: preventive, 100 ppm of active ingredient, evaluated 7 days after inoculation
Description: Example: In Vivo Phakopsora Test (Soybeans)/Preventive Solvent: 24.5 parts by weight of acetone • 24.5 parts by weight of dimethylacetamide Emulsifier: • 1 part by weight of alkylaryl polyglycol ether To produce a suitable preparation of active compound, 1 part by weight of active compound is mixed with the stated amounts of solvent and emulsifier, and the concentrate is diluted with water to the desired concentration. To test for preventive activity, young plants are sprayed with the preparation of active compound at the stated rate of application. After the spray coating has dried on, the plants are inoculated with an aqueous to spore suspension of the causal agent of soybean rust (Phakopsora pachyrhizi) and stay for 24 h without light in an incubation cabinet at approximately 24° C. and a relative atmospheric humidity of 95%.

Phytophthora infestans = format: in vivo; details: tomato plants, preventive spray, 500 ppm, grading 5 days after contamination

## C#CCON=Cc1ccc(-c2ccccc2NC(=O)c2c(C(F)F)nn(C)c2Cl)cc1 [Example 5]
Pyricularia oryzae
  Eff. %: 90%
Alternaria brassicae
  Eff. %: 88%
Puccinia recondita
  Eff. %: 100%
Sphaerotheca fuliginea
  Eff. %: 100%
Uromyces appendiculatus
  Eff. %: 100%
Pyrenophora teres
  Eff. %: 86%
Botrytis cinerea
  Eff. %: 100%
[1]
  logP: 3.79[a]

## CCON=Cc1ccc(-c2ccccc2NC(=O)c2c(C(F)F)nn(C)c2Cl)cc1F [Example 18]
Alternaria brassicae
  Eff. %: 94%
Puccinia recondita
  Eff. %: 97%
Sphaerotheca fuliginea
  Eff. %: 100%
Uromyces appendiculatus
  Eff. %: 100%
Pyrenophora teres
  Eff. %: 100%
Botrytis cinerea
  Eff. %: 70%
[1]
  logP: 4.22[a]
Septoria tritici
  Eff. %: 75%

## CON=Cc1ccc(-c2ccccc2NC(=O)c2c(C(F)F)nn(C)c2Cl)cc1C [Example 25]
Alternaria brassicae
  Eff. %: 94%
Puccinia recondita
  Eff. %: 100%
Sphaerotheca fuliginea
  Eff. %: 100%
Uromyces appendiculatus
  Eff. %: 94%
Pyrenophora teres
  Eff. %: 100%
Botrytis cinerea
  Eff. %: 98%
[1]
  logP: 4.04[a]
Septoria tritici
  Eff. %: 75%

## CON=Cc1c(F)cc(-c2ccccc2NC(=O)c2c(C(F)F)nn(C)c2Cl)cc1F [Example 23]
Alternaria brassicae
  Eff. %: 97%
Puccinia recondita
  Eff. %: 98%
Sphaerotheca fuliginea
  Eff. %: 100%
Uromyces appendiculatus
  Eff. %: 100%
Pyrenophora teres
  Eff. %: 97%
[1]
  logP: 3.61[a]
Septoria tritici
  Eff. %: 97%

## CC#CCON=Cc1ccc(-c2ccccc2NC(=O)c2c(C(F)F)nn(C)c2Cl)cc1 [Example 22]
Alternaria brassicae
  Eff. %: 75%
Puccinia recondita
  Eff. %: 98%
Sphaerotheca fuliginea
  Eff. %: 100%
Uromyces appendiculatus
  Eff. %: 100%
Botrytis cinerea
  Eff. %: 98%
[1]
  logP: 4.13[a]
Septoria tritici
  Eff. %: 96%

## CCON=Cc1ccc(-c2c(F)cccc2NC(=O)c2c(C(F)F)nn(C)c2Cl)cc1 [Example 40]
Alternaria brassicae
  Eff. %: 94%
Puccinia recondita
  Eff. %: 97%
Sphaerotheca fuliginea
  Eff. %: 100%
Uromyces appendiculatus
  Eff. %: 100%
Pyrenophora teres
  Eff. %: 90%
[1]
  logP: 4.18[a]
Septoria tritici
  Eff. %: 75%

## C#CCON=C(C)c1ccc(-c2ccccc2NC(=O)c2c(C(F)F)nn(C)c2F)cc1 [Example 12]
Alternaria brassicae
  Eff. %: 97%
Puccinia recondita
  Eff. %: 98%
Sphaerotheca fuliginea
  Eff. %: 96%
Uromyces appendiculatus
  Eff. %: 100%
Pyrenophora teres
  Eff. %: 80%
Botrytis cinerea
  Eff. %: 85%
[1]
  logP: 3.8[a]
Septoria tritici
  Eff. %: 75%

## CCON=Cc1ccc(-c2ccccc2NC(=O)c2c(C(F)F)nn(C)c2Cl)cc1C [Example 39]
Alternaria brassicae
  Eff. %: 94%
Puccinia recondita
  Eff. %: 97%
Sphaerotheca fuliginea
  Eff. %: 100%
Uromyces appendiculatus
  Eff. %: 100%
Pyrenophora teres
  Eff. %: 100%
Botrytis cinerea
  Eff. %: 99%
[1]
  logP: 4.48[a]
Septoria tritici
  Eff. %: 92%

## CC#CCON=C(C)c1ccc(-c2ccccc2NC(=O)c2c(C(F)F)nn(C)c2F)cc1 [Example 13]
Puccinia recondita
  Eff. %: 100%
Sphaerotheca fuliginea
  Eff. %: 100%
Uromyces appendiculatus
  Eff. %: 100%
Pyrenophora teres
  Eff. %: 88%
Botrytis cinerea
  Eff. %: 80%
[1]
  logP: 4.11[a]
Septoria tritici
  Eff. %: 80%
Phakopsora pachyrhizi
  Eff. %: 100%

## CON=Cc1ccc(-c2c(F)cccc2NC(=O)c2c(C(F)F)nn(C)c2Cl)cc1 [Example 28]
Alternaria brassicae
  Eff. %: 92%
Puccinia recondita
  Eff. %: 89%
Sphaerotheca fuliginea
  Eff. %: 100%
Uromyces appendiculatus
  Eff. %: 100%
Pyrenophora teres
  Eff. %: 93%
[1]
  logP: 3.76[a]
Septoria tritici
  Eff. %: 92%

## CCON=Cc1ccc(-c2ccccc2NC(=O)c2c(C(F)F)nn(C)c2Cl)cc1 [Example 6]
Pyricularia oryzae
  Eff. %: 100%
Alternaria brassicae
  Eff. %: 97%
Puccinia recondita
  Eff. %: 100%
Sphaerotheca fuliginea
  Eff. %: 100%
Uromyces appendiculatus
  Eff. %: 100%
Pyrenophora teres
  Eff. %: 100%
Botrytis cinerea
  Eff. %: 93%
[1]
  logP: 4.19[a]

## CC#CCON=C(C)c1ccc(-c2ccccc2NC(=O)c2c(C(F)F)nn(C)c2Cl)cc1 [Example 27]
Puccinia recondita
  Eff. %: 98%
Sphaerotheca fuliginea
  Eff. %: 100%
Uromyces appendiculatus
  Eff. %: 100%
[1]
  logP: 4.41[a]
Septoria tritici
  Eff. %: 70%
Phakopsora pachyrhizi
  Eff. %: 100%

## CC#CCON=Cc1ccc(-c2ccccc2NC(=O)c2c(C(F)F)nn(C)c2F)cc1 [Example 21]
Puccinia recondita
  Eff. %: 94%
Sphaerotheca fuliginea
  Eff. %: 100%
Uromyces appendiculatus
  Eff. %: 100%
Pyrenophora teres
  Eff. %: 88%
Botrytis cinerea
  Eff. %: 98%
[1]
  logP: 3.87[a]
Septoria tritici
  Eff. %: 96%

## C#CCON=C(C)c1ccc(-c2ccccc2NC(=O)c2c(C(F)F)nn(C)c2Cl)cc1 [Example 3]
Phytophthora infestans
  Eff. %: 99%
Puccinia recondita
  Eff. %: 98%
Sphaerotheca fuliginea
  Eff. %: 70%
Uromyces appendiculatus
  Eff. %: 100%
[1]
  logP: 4.06[a]
